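In this assay, cells in 96-well plates receive the compound at five concentrations for 48 hours. Endpoints are linearly interpolated between the surrounding concentrations. GI50 = concentration required for 50% inhibition of growth. TGI denotes the concentration required for complete inhibition of growth.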
Columns and labels:
Assay in all cases: DTP human tumour cell line panel, 48 h
HOP-92 NSCLC = test system: HOP-92 NSCLC
HT29 colon = test system: HT29 colon
NCI-H460 lung = test system: NCI-H460 lung
NCI/ADR-RES ovarian = test system: NCI/ADR-RES ovarian
M14 melanoma = test system: M14 melanoma
SF-295 CNS = test system: SF-295 CNS
K-562 leukemia = test system: K-562 leukemia
UACC-62 melanoma = test system: UACC-62 melanoma
DU-145 prostate = test system: DU-145 prostate
HCC-2998 colon = test system: HCC-2998 colon

Compound | GI50 (HOP-92 NSCLC) | TGI (HOP-92 NSCLC) | GI50 (HT29 colon) | TGI (HT29 colon) | GI50 (NCI-H460 lung) | TGI (NCI-H460 lung) | GI50 (NCI/ADR-RES ovarian) | TGI (NCI/ADR-RES ovarian) | GI50 (M14 melanoma) | TGI (M14 melanoma) | GI50 (SF-295 CNS) | TGI (SF-295 CNS) | GI50 (K-562 leukemia) | TGI (K-562 leukemia) | GI50 (UACC-62 melanoma) | TGI (UACC-62 melanoma) | GI50 (DU-145 prostate) | TGI (DU-145 prostate) | TGI (HCC-2998 colon) | GI50 (HCC-2998 colon)
CC(C)(C)OC(=O)n1cc(CNC(=S)Nc2ccccc2)c2ccccc21 | 8.94 µM | 25.7 µM | 22.3 µM | > 100 µM | 9.36 µM | 22 µM | 10.8 µM | 22.7 µM | 17.7 µM | 33.3 µM | 6.04 µM | 23.4 µM | 8.73 µM | 70.1 µM | 13.3 µM | 26.1 µM | 7 µM | 35.4 µM |  | 
CN(C)/C(=N/C(=S)Nc1ccccc1)SCc1ccccc1 |  |  |  | > 100 µM |  |  |  |  |  | > 100 µM |  | > 100 µM |  | > 100 µM |  | > 100 µM |  |  | > 100 µM | 
CCCCCCCCCCCCCCCC(=O)NCC(COP(=O)([O-])OCC[N+](C)(C)C)OCC (configuration not stated) |  | 15.6 µM |  | 16.3 µM |  | 7.28 µM |  |  |  | 24.7 µM |  | 18.6 µM |  |  |  | 22.3 µM |  |  | 3.1 µM | 
O=C1CCCN(c2ccccc2)N1 |  |  |  | > 100 µM |  | > 100 µM |  |  |  | > 100 µM |  | > 100 µM |  | > 100 µM |  | > 100 µM |  |  | > 100 µM | 
CCOC(=O)C1=C(C)Nc2ccccc2S1 |  | > 100 µM |  | > 100 µM |  | > 100 µM |  |  |  | > 100 µM |  | > 100 µM |  | > 100 µM |  | > 100 µM |  |  | > 100 µM | 
C#Cc1cnc(=O)n(C2CC(O)C(CO)O2)c1 (configuration not stated) |  | > 43.2 µM |  |  | > 78.5 µM | > 100 µM | > 100 µM | > 100 µM | > 100 µM | > 100 µM | > 100 µM | > 100 µM | > 100 µM | > 100 µM | > 100 µM | > 100 µM | > 100 µM | > 100 µM | > 100 µM | > 100000 nM
COC(=O)C(C#N)=C1c2ccccc2Oc2ccccc21 |  | 87.6 µM |  | > 100 µM |  | > 100 µM |  |  |  | > 100 µM |  | > 100 µM |  | > 100 µM |  | > 100 µM |  |  | > 100 µM | 
Cc1ccccc1C(C#N)C(=O)C(=O)Nc1nc([N+](=O)[O-])cs1 (configuration not stated) |  |  |  | > 100 µM |  | > 100 µM |  |  |  | > 100 µM |  |  |  |  |  | > 100 µM |  |  | > 100 µM | 
O=C1NC2(CCCC2)C(=O)C12CCCC2 |  | > 100 µM |  | > 100 µM |  | > 100 µM |  |  |  | > 100 µM |  | > 100 µM |  | > 100 µM |  | > 100 µM |  |  |  | 
CC(=O)c1ccc(Nc2cc(-c3ccccc3)nc3c(O)cccc23)cc1 | 13.7 µM | 50.5 µM | 20.7 µM | 43 µM |  |  | 5.53 µM | 34.9 µM | 4.58 µM | 33.9 µM | 37.2 µM | > 100 µM | 4.73 µM | > 100 µM | 12.7 µM | 29.6 µM | 21.8 µM | > 100 µM | 36.7 µM | 13700 nM
O=C1/C(=C/c2ccc(F)cc2)CCOc2ccc([N+](=O)[O-])cc21 | 4.45 µM | 40.2 µM |  |  | 17.4 µM | 34.9 µM | 2.12 µM | 4.99 µM | 2.22 µM | 5.61 µM | 3.08 µM | 9.23 µM | 0.964 µM | > 100 µM | 2.19 µM | 4.01 µM | 5.68 µM | 18.1 µM | 4.75 µM | 2040 nM
O=C(/C=C/c1ccccc1)/C=C/c1ccccc1O |  | > 100 µM |  | 47.6 µM |  | 39.7 µM |  |  |  | 50.7 µM |  | 48.8 µM |  | 38.9 µM |  | 38.8 µM |  |  | 26.8 µM | 
CCOC(=O)C1(CC)CCCCC(=O)N1 (configuration not stated) |  | > 100 µM |  | > 100 µM |  | > 100 µM |  |  |  | > 100 µM |  | > 100 µM |  | > 100 µM |  | > 100 µM |  |  | > 100 µM | 
CC(=O)[CH-]C(=O)c1ccccc1.CC(=O)[CH-]C(=O)c1ccccc1.CCCCCCCCCCCCCCCCCC(=O)[O-].CCCCCCCCCCCCCCCCCC(=O)[O-].[Ti+4] | 17 µM | 33.9 µM | 20.8 µM | 44.9 µM | 30.7 µM | 95.7 µM |  |  | 17.4 µM | 31.9 µM | 19.5 µM | 34.3 µM | 22.3 µM | 62.1 µM | 18.7 µM | 41.5 µM |  |  |  | 
CSC1=NC=CCN1C |  |  |  | > 100 µM |  | > 100 µM |  |  |  | > 100 µM |  | > 100 µM |  | > 100 µM |  | > 100 µM |  |  | > 100 µM | 
C=CC1=CSNN1 |  | > 100 µM |  | > 100 µM |  | > 100 µM |  |  |  | > 100 µM |  | > 100 µM |  | > 100 µM |  | > 100 µM |  |  | > 100 µM | 
N#Cc1c(-c2cccs2)c2c(=S)[nH]c(=S)[nH]c2[nH]c1=S | 89.4 µM | > 100 µM |  |  | 39.1 µM | 72.9 µM | 62 µM | 99.3 µM | 57.5 µM | > 100 µM | 46.5 µM | > 100 µM | 27.1 µM | > 100 µM | 36.3 µM | > 100 µM | 24 µM | 78.7 µM |  | 
C#CCNC(=O)NC(CCCNC(=O)OCc1ccccc1)C(=O)OCc1ccccc1 (configuration not stated) |  | > 100 µM |  | > 100 µM |  | > 100 µM |  |  |  | 50.6 µM |  | > 100 µM |  | > 100 µM |  | > 100 µM |  |  | > 100 µM | 
COC(=O)C(c1[nH]nc2ccccc12)C(C(=O)OC)c1[nH]nc2ccccc12 (configuration not stated) |  |  |  | > 100 µM |  | > 100 µM |  |  |  | > 100 µM |  | > 100 µM |  | > 100 µM |  | > 100 µM |  |  | > 100 µM | 
CCC(C)C1NC(=O)c2nc(oc2-c2ccccc2)-c2csc(n2)-c2csc(n2)-c2nc(oc2C)-c2coc(n2)CNC(=O)C(C(C)CC)NC1=O (configuration not stated) | 0.0198 µM | 0.134 µM |  |  | 0.0102 µM | 0.0268 µM | 0.278 µM | 2.38 µM |  |  | 0.0469 µM | 0.178 µM |  |  |  |  | 0.0218 µM | 0.0658 µM | 0.249 µM | 54.3 nM

From PubChem BioAssay (NCI)
